Experimental data from ChEMBL document CHEMBL5291721, “A preclinical secondary pharmacology resource illuminates target-adverse drug reaction associations of marketed drugs” (Nat Commun, 2023).
Where a SMILES comes first, the peptide text is derived from it.

Legend:
[1] = molecular target: T1, 5-hydroxytryptamine receptor 1A (Homo sapiens, UniProt P08908)
T1 sequence (P08908 whole entry): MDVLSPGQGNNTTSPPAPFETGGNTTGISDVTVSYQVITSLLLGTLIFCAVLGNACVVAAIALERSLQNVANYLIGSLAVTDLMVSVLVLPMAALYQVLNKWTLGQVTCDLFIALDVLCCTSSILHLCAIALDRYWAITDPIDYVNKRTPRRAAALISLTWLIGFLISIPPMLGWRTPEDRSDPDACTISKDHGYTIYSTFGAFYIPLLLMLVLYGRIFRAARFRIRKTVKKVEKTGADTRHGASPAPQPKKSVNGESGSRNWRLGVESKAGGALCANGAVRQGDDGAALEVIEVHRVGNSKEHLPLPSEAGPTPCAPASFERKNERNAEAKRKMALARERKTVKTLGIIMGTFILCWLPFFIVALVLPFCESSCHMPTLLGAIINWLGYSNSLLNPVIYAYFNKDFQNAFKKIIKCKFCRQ

[2] = molecular target: Neurotensin receptor type 1 (Homo sapiens, UniProt P30989)
[3] = molecular target: 5-hydroxytryptamine receptor 2A (Homo sapiens, UniProt P28223); type: functional, cell-based
[4] = molecular target: Beta-2 adrenergic receptor (Homo sapiens, UniProt P07550); type: functional, cell-based
[5] = molecular target: T2, Muscarinic acetylcholine receptor M2 (Homo sapiens, UniProt P08172)
T2 sequence (P08172 whole entry): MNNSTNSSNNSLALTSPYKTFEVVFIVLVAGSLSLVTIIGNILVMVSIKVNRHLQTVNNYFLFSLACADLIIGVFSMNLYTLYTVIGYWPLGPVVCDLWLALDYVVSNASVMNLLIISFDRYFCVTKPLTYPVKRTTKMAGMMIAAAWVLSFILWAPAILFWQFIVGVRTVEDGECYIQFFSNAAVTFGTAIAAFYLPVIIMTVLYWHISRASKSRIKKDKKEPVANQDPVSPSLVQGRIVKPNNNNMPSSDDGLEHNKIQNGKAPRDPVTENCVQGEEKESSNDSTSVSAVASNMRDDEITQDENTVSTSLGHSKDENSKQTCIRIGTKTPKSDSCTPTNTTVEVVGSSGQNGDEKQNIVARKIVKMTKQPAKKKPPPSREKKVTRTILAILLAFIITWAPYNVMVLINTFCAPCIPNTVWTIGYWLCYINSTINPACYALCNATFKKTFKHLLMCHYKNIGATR

[6] = molecular target: T3, Corticotropin-releasing factor receptor 2 (Homo sapiens, UniProt Q13324)
T3 sequence (Q13324 whole entry): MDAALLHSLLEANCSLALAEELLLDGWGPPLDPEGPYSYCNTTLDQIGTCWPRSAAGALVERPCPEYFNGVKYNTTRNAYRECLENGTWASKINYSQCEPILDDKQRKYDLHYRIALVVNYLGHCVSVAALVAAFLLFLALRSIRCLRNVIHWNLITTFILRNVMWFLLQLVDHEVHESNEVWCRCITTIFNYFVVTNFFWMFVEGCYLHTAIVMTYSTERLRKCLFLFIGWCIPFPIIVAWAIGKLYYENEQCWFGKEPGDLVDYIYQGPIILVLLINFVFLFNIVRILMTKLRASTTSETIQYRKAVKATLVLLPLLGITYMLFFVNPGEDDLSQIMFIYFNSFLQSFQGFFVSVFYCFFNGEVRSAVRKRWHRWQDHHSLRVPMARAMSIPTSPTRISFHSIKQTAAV

[7] = molecular target: T1, 5-hydroxytryptamine receptor 1A; type: functional, cell-based
[8] = molecular target: Cannabinoid receptor 1 (Homo sapiens, UniProt P21554)
[9] = molecular target: Voltage-dependent N-type calcium channel subunit alpha-1B (Rattus norvegicus, UniProt Q02294); type: functional
[10] = molecular target: Histamine H2 receptor (Homo sapiens, UniProt P25021); type: functional, cell-based
[11] = molecular target: T4, Androgen receptor (Rattus norvegicus, UniProt P15207)
T4 sequence (P15207 whole entry): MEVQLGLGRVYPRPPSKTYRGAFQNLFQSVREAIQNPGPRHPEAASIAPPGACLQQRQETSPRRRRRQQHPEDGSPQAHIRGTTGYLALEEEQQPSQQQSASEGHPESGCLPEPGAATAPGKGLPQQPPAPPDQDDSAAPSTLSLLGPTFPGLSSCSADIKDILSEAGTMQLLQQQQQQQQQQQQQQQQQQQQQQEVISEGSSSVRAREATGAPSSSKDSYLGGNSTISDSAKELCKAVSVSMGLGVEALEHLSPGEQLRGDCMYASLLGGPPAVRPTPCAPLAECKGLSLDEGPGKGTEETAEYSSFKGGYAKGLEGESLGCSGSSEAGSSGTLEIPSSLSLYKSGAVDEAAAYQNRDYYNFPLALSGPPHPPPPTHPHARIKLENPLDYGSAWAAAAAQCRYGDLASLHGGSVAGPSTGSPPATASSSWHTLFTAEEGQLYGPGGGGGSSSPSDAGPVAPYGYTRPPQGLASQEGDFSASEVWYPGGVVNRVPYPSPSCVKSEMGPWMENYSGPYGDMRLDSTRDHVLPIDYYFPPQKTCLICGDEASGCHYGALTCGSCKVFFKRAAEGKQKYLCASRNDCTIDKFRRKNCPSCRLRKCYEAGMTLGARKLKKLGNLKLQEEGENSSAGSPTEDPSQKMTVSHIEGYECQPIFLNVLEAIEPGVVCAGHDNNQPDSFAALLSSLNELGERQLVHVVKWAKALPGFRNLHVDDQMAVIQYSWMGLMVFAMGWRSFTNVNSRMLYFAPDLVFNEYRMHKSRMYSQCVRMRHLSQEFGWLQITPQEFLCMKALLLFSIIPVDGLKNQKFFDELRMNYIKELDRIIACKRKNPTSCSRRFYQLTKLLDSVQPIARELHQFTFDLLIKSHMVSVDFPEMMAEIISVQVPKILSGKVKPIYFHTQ

[12] = molecular target: Estrogen receptor beta (Homo sapiens, UniProt Q92731)
[13] = molecular target: T4, Androgen receptor; type: functional
[14] = molecular target: Mu-type opioid receptor (Homo sapiens, UniProt P35372); test: biochemical; type: functional
[15] = molecular target: T4, Androgen receptor; type: functional; remark: listed apart in the source
Further: assay procedure not described here.

Sequence of Voltage-dependent N-type calcium channel subunit alpha-1B (Q02294 whole entry): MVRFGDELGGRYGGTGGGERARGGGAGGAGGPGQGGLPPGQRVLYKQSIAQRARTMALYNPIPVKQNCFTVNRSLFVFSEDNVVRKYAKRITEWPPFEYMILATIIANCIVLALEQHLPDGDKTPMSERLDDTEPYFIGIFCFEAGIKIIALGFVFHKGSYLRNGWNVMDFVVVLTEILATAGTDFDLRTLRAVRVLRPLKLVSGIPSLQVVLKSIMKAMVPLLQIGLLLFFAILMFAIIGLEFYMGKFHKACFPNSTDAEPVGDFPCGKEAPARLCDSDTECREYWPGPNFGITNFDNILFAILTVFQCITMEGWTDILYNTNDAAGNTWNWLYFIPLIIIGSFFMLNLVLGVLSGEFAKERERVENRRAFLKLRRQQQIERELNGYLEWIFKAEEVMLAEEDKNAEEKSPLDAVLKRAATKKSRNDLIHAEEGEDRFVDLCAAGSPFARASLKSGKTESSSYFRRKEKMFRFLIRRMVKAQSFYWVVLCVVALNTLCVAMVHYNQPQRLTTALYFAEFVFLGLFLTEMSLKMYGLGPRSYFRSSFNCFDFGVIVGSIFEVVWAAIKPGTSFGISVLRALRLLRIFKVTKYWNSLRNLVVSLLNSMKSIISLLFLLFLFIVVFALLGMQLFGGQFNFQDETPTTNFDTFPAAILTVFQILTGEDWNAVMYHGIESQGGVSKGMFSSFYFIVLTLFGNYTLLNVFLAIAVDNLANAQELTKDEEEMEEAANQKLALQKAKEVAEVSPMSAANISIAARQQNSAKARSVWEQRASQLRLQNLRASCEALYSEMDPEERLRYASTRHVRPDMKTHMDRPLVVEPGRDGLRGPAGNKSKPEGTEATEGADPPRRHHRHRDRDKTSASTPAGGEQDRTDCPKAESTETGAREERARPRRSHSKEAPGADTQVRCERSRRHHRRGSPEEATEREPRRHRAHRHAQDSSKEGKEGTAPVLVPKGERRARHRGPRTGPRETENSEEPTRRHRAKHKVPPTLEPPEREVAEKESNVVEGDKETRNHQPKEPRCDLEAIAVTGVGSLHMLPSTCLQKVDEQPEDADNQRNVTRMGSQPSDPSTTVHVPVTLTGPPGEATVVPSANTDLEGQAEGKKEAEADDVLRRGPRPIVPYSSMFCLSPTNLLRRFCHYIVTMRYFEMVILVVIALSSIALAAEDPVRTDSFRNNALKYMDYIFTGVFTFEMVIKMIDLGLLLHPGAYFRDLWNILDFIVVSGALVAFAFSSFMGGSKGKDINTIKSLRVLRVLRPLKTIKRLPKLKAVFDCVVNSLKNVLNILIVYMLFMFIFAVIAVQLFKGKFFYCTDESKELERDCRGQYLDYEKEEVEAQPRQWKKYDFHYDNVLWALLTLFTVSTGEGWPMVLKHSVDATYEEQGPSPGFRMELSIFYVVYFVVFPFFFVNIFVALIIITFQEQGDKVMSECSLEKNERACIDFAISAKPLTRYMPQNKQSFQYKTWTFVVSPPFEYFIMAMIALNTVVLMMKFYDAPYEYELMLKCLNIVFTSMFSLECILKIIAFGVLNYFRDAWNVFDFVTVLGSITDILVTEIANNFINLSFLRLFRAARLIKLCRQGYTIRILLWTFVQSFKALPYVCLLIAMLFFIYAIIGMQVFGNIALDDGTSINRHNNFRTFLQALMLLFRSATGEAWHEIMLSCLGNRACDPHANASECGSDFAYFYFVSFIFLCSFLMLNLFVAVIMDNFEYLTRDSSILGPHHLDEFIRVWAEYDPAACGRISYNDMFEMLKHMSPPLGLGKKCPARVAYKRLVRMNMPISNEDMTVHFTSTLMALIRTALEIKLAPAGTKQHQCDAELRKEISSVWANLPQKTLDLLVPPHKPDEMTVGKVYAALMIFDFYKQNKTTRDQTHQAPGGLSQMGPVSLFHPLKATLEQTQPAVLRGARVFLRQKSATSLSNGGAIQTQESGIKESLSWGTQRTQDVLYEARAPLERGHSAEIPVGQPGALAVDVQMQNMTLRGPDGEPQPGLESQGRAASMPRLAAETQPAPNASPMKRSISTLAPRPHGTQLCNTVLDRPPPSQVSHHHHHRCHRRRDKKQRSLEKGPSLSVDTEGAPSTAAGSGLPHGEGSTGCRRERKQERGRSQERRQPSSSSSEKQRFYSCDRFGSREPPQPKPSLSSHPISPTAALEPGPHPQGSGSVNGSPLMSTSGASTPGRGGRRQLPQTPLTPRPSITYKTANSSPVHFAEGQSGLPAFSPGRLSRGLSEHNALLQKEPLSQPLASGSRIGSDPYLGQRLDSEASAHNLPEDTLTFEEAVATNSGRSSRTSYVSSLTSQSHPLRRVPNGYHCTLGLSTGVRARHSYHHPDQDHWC
Sequence of Neurotensin receptor type 1 (P30989 whole entry): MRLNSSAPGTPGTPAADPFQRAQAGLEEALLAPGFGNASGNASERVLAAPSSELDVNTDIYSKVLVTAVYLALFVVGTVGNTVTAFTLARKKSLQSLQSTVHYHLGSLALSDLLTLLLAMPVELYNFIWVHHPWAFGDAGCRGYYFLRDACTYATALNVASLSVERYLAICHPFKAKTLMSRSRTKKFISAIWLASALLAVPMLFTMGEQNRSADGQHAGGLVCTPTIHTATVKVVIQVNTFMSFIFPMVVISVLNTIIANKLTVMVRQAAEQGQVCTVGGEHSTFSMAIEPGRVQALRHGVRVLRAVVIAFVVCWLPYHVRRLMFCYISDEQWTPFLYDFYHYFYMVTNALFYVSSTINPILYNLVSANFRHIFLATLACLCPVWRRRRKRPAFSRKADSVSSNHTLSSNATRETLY
Sequence of 5-hydroxytryptamine receptor 2A (P28223 whole entry): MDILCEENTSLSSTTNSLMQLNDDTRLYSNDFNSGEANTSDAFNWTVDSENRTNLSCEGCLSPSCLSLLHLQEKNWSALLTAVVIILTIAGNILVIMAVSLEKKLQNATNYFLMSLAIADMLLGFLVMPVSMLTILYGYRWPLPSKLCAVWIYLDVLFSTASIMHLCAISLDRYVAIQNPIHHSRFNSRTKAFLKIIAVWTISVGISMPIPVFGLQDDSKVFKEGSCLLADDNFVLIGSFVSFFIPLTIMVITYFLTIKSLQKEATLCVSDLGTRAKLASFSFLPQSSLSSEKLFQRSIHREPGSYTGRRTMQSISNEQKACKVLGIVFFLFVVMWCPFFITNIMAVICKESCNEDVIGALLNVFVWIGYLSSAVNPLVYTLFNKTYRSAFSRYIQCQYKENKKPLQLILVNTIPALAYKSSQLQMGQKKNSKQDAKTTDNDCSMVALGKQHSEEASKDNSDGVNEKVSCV
Sequence of Beta-2 adrenergic receptor (P07550 whole entry): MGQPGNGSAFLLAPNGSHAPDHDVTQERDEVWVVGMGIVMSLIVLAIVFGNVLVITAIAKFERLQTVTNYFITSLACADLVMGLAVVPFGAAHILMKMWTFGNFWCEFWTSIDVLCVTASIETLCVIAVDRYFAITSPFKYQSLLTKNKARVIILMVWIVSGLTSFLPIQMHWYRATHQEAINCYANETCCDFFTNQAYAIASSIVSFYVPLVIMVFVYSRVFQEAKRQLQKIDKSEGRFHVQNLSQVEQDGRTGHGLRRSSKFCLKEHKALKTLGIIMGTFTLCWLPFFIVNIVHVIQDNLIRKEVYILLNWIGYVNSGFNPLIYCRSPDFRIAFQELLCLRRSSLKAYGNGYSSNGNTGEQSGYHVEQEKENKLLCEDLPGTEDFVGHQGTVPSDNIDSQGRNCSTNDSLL
Sequence of Mu-type opioid receptor (P35372 whole entry): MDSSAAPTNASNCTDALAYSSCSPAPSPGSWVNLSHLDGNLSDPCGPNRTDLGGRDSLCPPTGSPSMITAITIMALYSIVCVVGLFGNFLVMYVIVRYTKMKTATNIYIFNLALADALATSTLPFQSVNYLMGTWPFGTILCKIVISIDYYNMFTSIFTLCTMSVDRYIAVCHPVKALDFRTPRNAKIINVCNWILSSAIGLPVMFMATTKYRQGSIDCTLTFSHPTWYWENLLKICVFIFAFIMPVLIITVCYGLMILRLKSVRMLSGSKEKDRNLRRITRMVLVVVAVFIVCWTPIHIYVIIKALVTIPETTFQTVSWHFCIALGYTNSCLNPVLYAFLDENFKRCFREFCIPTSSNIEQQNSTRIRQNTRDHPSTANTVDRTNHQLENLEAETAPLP
Sequence of Histamine H2 receptor (P25021 whole entry): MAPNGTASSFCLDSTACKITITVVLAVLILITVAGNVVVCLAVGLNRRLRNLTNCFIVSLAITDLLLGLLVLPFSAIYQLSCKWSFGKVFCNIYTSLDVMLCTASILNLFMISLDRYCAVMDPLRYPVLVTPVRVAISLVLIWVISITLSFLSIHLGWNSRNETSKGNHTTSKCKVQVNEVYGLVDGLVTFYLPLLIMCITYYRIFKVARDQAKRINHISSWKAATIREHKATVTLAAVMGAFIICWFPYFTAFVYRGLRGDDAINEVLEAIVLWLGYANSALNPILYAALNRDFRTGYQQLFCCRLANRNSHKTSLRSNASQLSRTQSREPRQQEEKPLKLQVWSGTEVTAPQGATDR
Sequence of Estrogen receptor beta (Q92731 whole entry): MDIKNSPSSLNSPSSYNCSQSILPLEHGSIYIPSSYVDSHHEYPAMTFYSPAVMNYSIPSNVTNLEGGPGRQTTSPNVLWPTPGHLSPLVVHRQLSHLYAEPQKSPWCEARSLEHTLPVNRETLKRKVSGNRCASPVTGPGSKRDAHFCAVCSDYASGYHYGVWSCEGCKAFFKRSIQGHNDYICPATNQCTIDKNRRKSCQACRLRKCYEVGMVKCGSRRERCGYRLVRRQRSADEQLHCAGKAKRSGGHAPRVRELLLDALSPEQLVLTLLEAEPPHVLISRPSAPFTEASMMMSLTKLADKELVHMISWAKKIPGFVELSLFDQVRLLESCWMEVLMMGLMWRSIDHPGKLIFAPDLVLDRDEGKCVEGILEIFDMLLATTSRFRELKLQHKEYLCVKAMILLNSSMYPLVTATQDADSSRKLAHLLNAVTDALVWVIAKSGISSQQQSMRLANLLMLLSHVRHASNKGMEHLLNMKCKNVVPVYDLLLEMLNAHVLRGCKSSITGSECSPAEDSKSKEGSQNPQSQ

| Compound | AC50 [1] [µM] | AC50 [2] [µM] | AC50 [3] [µM] | AC50 [4] [µM] | AC50 [5] [µM] | AC50 [6] [µM] | AC50 [7] [µM] | AC50 [8] [µM] | AC50 [9] [µM] | AC50 [10] [µM] | AC50 [11] [µM] | AC50 [12] [µM] | AC50 [13] [µM] | AC50 [14] [µM] | AC50 [15] [µM] |
| --- | --- | --- | --- | --- | --- | --- | --- | --- | --- | --- | --- | --- | --- | --- | --- |
| Cc1ccc(-c2ncc(Cl)cc2-c2ccc(S(C)(=O)=O)cc2)cn1 [ETORICOXIB] | > 10 | > 30 | > 30 | > 30 | > 10 | > 30 | > 10 | > 10 | > 10 | > 10 | > 30 | > 30 |  |  |  |
| O=C1CN=C(c2ccccc2Cl)c2cc([N+](=O)[O-])ccc2N1 [CLONAZEPAM] | > 10 | > 30 |  | > 30 | > 10 | > 30 | > 10 | > 10 | > 10 | > 10 | > 30 | > 30 |  |  |  |
| CCCO[C@H]1[C@@H]([C@@H](COCc2ccc(Cl)cc2)OCc2ccc(Cl)cc2)OC(OCC)[C@@H]1O (some centres not stated) [CLOBENOSIDE] |  |  | > 30 |  |  |  | > 30 |  |  | > 30 |  |  | > 30 | > 30 | > 30 |
| CN(C)CCOCC(=O)NC12CC3CC(CC(C3)C1)C2 [TROMANTADINE] |  |  | > 30 |  |  |  | > 30 |  |  | > 30 |  |  | > 30 | > 30 | > 30 |
| CC(C)(N)Cc1ccccc1 [PHENTERMINE] | > 10 | > 30 | > 30 | > 30 | > 10 | > 30 | > 10 | > 10 | > 10 | > 10 | > 30 | > 30 |  |  |  |
| CN1C(=O)CN=C(c2ccccc2F)c2cc([N+](=O)[O-])ccc21 [FLUNITRAZEPAM] | > 10 | > 30 |  |  | > 10 | > 30 | > 10 | > 10 | > 10 | > 10 | > 30 | > 30 |  |  |  |
| COc1ccc(-n2nc(C(N)=O)c3c2C(=O)N(c2ccc(N4CCCCC4=O)cc2)CC3)cc1 [APIXABAN] |  |  |  | > 30 |  |  | > 30 |  |  | > 30 |  |  | > 30 |  | > 30 |
| O=C(O)c1nn(Cc2ccc(Cl)cc2Cl)c2ccccc12 [LONIDAMINE] |  |  | > 30 | > 10 |  |  | > 30 |  |  | > 30 |  |  | > 30 | > 30 | > 30 |
| Oc1cc(O)c2c(c1)O[C@H](c1ccc(O)c(O)c1)[C@@H](O)C2 [CIANIDANOL] | > 10 | > 30 | > 30 | > 30 | > 10 | > 30 | > 10 | > 10 | > 10 | > 10 |  | > 30 |  |  |  |
| Cc1ccc(S(=O)(=O)NC(=O)N[C@H]2[C@H]3CC[C@@](C)([C@H]2O)C3(C)C)cc1 [GLIBORNURIDE] |  |  | > 30 | > 30 |  |  | > 30 |  |  | > 30 |  |  | > 30 | > 30 | > 30 |
| CCC(=O)O[C@H](CC(=O)O)C[N+](C)(C)C [LEVOCARNITINE PROPIONATE] |  |  | > 30 | > 30 |  |  | > 30 |  |  | > 30 |  |  | > 30 | > 30 | > 30 |
| CCCCCCCC(=O)CC[C@@H]1[C@@H](C/C=C\CCCC(=O)O)[C@@H](O)C[C@H]1O [UNOPROSTONE] |  |  | > 30 | > 30 |  |  | > 30 |  |  | > 30 |  |  | > 30 | > 30 | > 30 |
| CCCCC[C@H](O)CC[C@@H]1[C@H]2Cc3cccc(OCC(=O)O)c3C[C@H]2C[C@H]1O [TREPROSTINIL] |  |  | > 30 | > 30 |  |  | > 30 |  |  | > 30 |  |  | > 30 | > 30 | > 30 |
| CC(=O)OCC(=O)[C@@]1(O)CC[C@H]2[C@@H]3CCC4=CC(=O)CC[C@]4(C)[C@@]3(F)[C@@H](O)C[C@@]21C [FLUDROCORTISONE ACETATE] |  |  |  | > 30 |  |  | > 30 |  |  | > 30 |  |  | > 30 | > 30 | > 30 |
| C[C@H](N)C(=O)N[C@@H](CCC(N)=O)C(=O)O [ALANYL GLUTAMINE] (H-Ala-Gln-OH) |  |  | > 30 |  |  |  | > 30 |  |  | > 30 |  |  | > 30 | > 30 | > 30 |
| NS(=O)(=O)c1ccc(N2CCCCS2(=O)=O)cc1 |  |  | > 30 | > 30 |  |  | > 30 |  |  | > 30 |  |  | > 30 | > 30 | > 30 |
| CC(=O)Oc1cccc2c1C(=O)c1c(OC(C)=O)cc(C(=O)O)cc1C2=O [DIACEREIN] |  |  | 18 |  |  |  | 18 |  |  | > 30 |  |  | > 10 | > 30 | > 30 |
| CC1NCCOC1c1ccccc1 (configuration not stated) [PHENMETRAZINE] | > 10 | > 30 | > 30 | > 30 | > 10 | > 30 | > 10 | > 10 | > 10 | > 10 |  | > 30 |  |  |  |
| CCCCOC(=O)C(=O)Nc1cccc(-c2nnn[nH]2)c1 [TAZANOLAST] |  |  | > 30 |  |  |  | > 30 |  |  | > 30 |  |  | > 30 | > 30 | > 30 |
| O=C(O)c1ccc2nc(-c3cc(Cl)cc(Cl)c3)oc2c1 |  |  | > 30 |  |  |  | > 30 | 22 |  | > 30 |  |  | > 30 | > 30 | > 30 |
